Measured values from ChEMBL document CHEMBL4828725 (Eur J Med Chem, 2021).
pIC50: −log10 of the molar value.

Columns and labels:
[1] = Inhibition of bovine liver beta-galactosidase using p-nitrophenyl glycoside as substrate assessed as release of p-nitrophenol measured by spectrometric assay; type: tissue-based, Bos taurus
[2] = target: T1, Sucrase-isomaltase, intestinal (Rattus norvegicus, UniProt P23739); assay: Inhibition of rat intestinal isomaltase using p-nitrophenyl glycoside as substrate assessed as release of p-nitrophenol measured by spectrometric assay; conditions: for pIC50: read-out: IC50
[3] = Inhibition of jack bean alpha-mannosidase using p-nitrophenyl glycoside as substrate assessed as release of p-nitrophenol measured by spectrometric assay; set-up: species or system Canavalia ensiformis
[4] = tested on: Prunus dulcis; assay: Inhibition of almond beta-glucosidase using p-nitrophenyl glycoside as substrate assessed as release of p-nitrophenol at 1000 uM measured by spectrometric assay relative to control
[5] = organism: Bos taurus; assay: Inhibition of bovine liver beta-glucosidase using p-nitrophenyl glycoside as substrate assessed as release of p-nitrophenol at 1000 uM measured by spectrometric assay relative to control; type: tissue-based
[6] = target: T2, Tissue alpha-L-fucosidase (Bos taurus, UniProt Q2KIM0); assay: Inhibition of bovine kidney alpha-L-fucosidase using p-nitrophenyl glycoside as substrate assessed as release of p-nitrophenol measured by spectrometric assay
T2 sequence (Q2KIM0 whole entry): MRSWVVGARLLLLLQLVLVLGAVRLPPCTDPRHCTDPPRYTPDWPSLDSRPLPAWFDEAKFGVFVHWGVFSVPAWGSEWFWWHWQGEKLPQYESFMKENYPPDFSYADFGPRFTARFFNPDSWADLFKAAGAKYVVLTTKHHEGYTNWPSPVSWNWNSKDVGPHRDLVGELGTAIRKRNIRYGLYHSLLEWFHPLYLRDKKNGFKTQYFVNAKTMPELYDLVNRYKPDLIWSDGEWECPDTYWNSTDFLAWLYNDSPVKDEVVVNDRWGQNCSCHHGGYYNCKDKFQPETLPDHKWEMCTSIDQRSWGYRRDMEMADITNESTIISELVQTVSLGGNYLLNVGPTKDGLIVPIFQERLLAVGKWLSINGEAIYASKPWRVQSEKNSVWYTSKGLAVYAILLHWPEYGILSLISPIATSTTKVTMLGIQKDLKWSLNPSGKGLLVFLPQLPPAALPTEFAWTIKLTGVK

[7] = target: Alpha-galactosidase (Coffea arabica, UniProt Q42656); assay: Inhibition of coffee beans alpha-galactosidase using p-nitrophenyl glycoside as substrate assessed as release of p-nitrophenol measured by spectrometric assay
[8] = organism: Rattus norvegicus; assay: Inhibition of rat intestinal maltase using maltose as substrate assessed as release of D-glucose at 1000 uM measured by spectrometric assay
[9] = Inhibition of Aspergillus niger amyloglucosidase using p-nitrophenyl glycoside as substrate assessed as release of p-nitrophenol measured by spectrometric assay
[10] = organism: Sus scrofa; assay: Inhibition of porcine kidney alpha-trehalase using p-nitrophenyl glycoside as substrate assessed as release of p-nitrophenol at 1000 uM measured by spectrometric assay relative to control
[11] = Inhibition of Penicillium decumbens alpha-L-rhamnosidase using p-nitrophenyl glycoside as substrate assessed as release of p-nitrophenol measured by spectrometric assay
[12] = tested on: Helix pomatia; assay: Inhibition of snail beta-mannosidase using p-nitrophenyl glycoside as substrate assessed as release of p-nitrophenol at 1000 uM measured by spectrometric assay relative to control
[13] = target: T1, Sucrase-isomaltase, intestinal; assay: Inhibition of rat intestinal sucrase using p-nitrophenyl glycoside as substrate assessed as release of p-nitrophenol measured by spectrometric assay; conditions: for pIC50: read-out: IC50
[14] = tested on: Penicillium decumbens; assay: Inhibition of Penicillium decumbens alpha-L-rhamnosidase using p-nitrophenyl glycoside as substrate assessed as release of p-nitrophenol at 1000 uM measured by spectrometric assay relative to control
[15] = tested on: Aspergillus niger; assay: Inhibition of Aspergillus niger amyloglucosidase using p-nitrophenyl glycoside as substrate assessed as release of p-nitrophenol at 1000 uM measured by spectrometric assay relative to control
[16] = Inhibition of porcine kidney alpha-trehalase using p-nitrophenyl glycoside as substrate assessed as release of p-nitrophenol measured by spectrometric assay; set-up: species or system Sus scrofa
[17] = target: Beta-glucuronidase (Escherichia coli (strain K12)) (UniProt P05804); assay: Inhibition of Escherichia coli beta-glucuronidase using p-nitrophenyl glycoside as substrate assessed as release of p-nitrophenol at 1000 uM measured by spectrometric assay relative to control
[18] = Inhibition of bovine liver beta-glucosidase using p-nitrophenyl glycoside as substrate assessed as release of p-nitrophenol measured by spectrometric assay; set-up: species or system Bos taurus
[19] = target: T3, Alpha-mannosidase (Canavalia ensiformis) (UniProt C0HJB3); assay: Inhibition of jack bean alpha-mannosidase using p-nitrophenyl glycoside as substrate assessed as release of p-nitrophenol at 1000 uM measured by spectrometric assay relative to control
T3 sequence (whole entry): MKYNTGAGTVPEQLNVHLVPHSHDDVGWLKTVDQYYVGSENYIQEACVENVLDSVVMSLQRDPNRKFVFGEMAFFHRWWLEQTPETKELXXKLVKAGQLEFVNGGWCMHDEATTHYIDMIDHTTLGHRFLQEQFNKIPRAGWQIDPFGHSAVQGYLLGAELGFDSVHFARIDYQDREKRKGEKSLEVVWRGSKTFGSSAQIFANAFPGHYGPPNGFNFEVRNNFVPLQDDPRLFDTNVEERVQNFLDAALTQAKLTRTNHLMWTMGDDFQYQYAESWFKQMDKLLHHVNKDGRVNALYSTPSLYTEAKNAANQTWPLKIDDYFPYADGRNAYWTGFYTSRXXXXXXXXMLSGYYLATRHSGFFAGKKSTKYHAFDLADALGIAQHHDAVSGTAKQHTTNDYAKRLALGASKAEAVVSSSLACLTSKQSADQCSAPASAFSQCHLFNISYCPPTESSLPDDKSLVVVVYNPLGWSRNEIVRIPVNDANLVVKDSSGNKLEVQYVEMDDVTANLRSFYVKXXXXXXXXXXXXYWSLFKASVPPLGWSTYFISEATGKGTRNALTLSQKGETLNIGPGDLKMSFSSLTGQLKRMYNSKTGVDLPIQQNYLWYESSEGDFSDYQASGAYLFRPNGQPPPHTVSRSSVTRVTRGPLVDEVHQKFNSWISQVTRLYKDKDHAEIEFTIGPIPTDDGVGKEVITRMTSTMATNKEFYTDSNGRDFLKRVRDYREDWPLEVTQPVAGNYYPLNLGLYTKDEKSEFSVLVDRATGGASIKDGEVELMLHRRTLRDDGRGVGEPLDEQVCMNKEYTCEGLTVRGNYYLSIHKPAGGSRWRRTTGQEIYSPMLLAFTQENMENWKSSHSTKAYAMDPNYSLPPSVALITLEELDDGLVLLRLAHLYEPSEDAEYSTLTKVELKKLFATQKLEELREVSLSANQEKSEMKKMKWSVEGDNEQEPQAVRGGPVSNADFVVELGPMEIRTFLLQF

[20] = Inhibition of almond beta-glucosidase using p-nitrophenyl glycoside as substrate assessed as release of p-nitrophenol measured by spectrometric assay; set-up: species or system Prunus dulcis
[21] = target: T4, Tissue alpha-L-fucosidase (Bos taurus) (UniProt Q2KIM0); assay: Inhibition of bovine kidney alpha-L-fucosidase using p-nitrophenyl glycoside as substrate assessed as release of p-nitrophenol at 1000 uM measured by spectrometric assay relative to control; type: tissue-based
T4 sequence (whole entry): T2 sequence (Q2KIM0 whole entry)

[22] = organism: Bos taurus; assay: Inhibition of bovine liver beta-galactosidase using p-nitrophenyl glycoside as substrate assessed as release of p-nitrophenol at 1000 uM measured by spectrometric assay relative to control
[23] = target: Alpha-galactosidase (Coffea arabica) (UniProt Q42656); assay: Inhibition of coffee beans alpha-galactosidase using p-nitrophenyl glycoside as substrate assessed as release of p-nitrophenol at 1000 uM measured by spectrometric assay relative to control
[24] = target: Beta-glucuronidase (Escherichia coli (strain K12), UniProt P05804); assay: Inhibition of Escherichia coli beta-glucuronidase using p-nitrophenyl glycoside as substrate assessed as release of p-nitrophenol measured by spectrometric assay
[25] = Inhibition of rice alpha-glucosidase using p-nitrophenyl glycoside as substrate assessed as release of p-nitrophenol measured by spectrometric assay; set-up: species or system Oryza sativa; conditions: read-out: IC50
[26] = Inhibition of snail beta-mannosidase using p-nitrophenyl glycoside as substrate assessed as release of p-nitrophenol measured by spectrometric assay; set-up: species or system Helix pomatia
[27] = Inhibition of rat intestinal maltase using maltose as substrate assessed as release of D-glucose measured by spectrometric assay

Chain of Alpha-galactosidase (Coffea arabica) (Q42656 16-378 limits assumed): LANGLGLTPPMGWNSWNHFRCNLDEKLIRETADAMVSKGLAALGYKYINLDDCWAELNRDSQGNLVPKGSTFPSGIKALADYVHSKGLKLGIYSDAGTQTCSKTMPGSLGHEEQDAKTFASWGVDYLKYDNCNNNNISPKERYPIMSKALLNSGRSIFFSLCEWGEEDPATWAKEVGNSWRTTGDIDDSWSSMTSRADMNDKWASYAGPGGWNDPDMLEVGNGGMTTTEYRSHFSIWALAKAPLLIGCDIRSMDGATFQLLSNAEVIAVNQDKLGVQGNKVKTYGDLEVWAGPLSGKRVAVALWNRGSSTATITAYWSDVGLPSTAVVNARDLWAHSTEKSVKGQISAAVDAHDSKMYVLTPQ
Chain of Beta-glucuronidase (P05804 whole entry): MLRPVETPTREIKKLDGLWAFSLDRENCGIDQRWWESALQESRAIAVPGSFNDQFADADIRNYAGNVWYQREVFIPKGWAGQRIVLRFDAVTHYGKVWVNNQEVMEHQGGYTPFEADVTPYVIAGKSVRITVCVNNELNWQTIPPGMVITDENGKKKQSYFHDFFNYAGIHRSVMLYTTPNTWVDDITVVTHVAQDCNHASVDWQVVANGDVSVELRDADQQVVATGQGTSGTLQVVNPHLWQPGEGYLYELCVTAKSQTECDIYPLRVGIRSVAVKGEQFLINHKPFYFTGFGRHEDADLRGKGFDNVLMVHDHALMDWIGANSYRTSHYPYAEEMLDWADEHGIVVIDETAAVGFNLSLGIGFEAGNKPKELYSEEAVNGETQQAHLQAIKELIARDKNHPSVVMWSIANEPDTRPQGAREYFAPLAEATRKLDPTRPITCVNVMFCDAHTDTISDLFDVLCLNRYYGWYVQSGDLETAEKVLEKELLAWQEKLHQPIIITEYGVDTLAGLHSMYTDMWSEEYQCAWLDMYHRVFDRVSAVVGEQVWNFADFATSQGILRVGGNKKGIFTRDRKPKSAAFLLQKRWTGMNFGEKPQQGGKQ
Chain of Beta-glucuronidase (Escherichia coli (strain K12)) (P05804 whole entry, looked up): as the sequence (P05804 whole entry) above
T1 sequence (P23739 1-1013 limits assumed): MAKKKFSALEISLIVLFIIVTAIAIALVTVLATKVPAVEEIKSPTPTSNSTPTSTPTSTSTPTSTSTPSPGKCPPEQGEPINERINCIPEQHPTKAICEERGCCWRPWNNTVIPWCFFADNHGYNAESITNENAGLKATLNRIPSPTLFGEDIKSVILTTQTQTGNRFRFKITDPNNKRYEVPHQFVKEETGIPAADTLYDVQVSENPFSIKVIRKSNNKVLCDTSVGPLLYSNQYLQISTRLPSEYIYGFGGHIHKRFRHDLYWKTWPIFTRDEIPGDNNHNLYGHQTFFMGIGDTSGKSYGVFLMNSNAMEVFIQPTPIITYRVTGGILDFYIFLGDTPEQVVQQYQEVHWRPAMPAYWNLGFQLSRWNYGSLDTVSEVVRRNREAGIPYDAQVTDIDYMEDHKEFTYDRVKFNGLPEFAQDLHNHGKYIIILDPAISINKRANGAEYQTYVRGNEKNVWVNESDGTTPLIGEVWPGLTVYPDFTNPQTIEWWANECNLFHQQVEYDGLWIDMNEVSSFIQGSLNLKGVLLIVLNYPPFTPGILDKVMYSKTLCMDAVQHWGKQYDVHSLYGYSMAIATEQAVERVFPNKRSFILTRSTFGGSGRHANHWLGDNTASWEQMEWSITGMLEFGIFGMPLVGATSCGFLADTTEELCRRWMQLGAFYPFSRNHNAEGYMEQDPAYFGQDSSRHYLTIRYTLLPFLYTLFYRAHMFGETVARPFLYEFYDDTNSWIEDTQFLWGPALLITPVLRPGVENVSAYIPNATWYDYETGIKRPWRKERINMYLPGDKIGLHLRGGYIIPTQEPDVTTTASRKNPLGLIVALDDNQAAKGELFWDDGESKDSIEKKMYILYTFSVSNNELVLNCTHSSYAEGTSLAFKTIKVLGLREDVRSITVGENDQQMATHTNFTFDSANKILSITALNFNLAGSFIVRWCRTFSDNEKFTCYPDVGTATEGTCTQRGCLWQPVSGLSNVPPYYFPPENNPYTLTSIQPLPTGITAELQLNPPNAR
T1 sequence (P23739 1014-1841 limits assumed): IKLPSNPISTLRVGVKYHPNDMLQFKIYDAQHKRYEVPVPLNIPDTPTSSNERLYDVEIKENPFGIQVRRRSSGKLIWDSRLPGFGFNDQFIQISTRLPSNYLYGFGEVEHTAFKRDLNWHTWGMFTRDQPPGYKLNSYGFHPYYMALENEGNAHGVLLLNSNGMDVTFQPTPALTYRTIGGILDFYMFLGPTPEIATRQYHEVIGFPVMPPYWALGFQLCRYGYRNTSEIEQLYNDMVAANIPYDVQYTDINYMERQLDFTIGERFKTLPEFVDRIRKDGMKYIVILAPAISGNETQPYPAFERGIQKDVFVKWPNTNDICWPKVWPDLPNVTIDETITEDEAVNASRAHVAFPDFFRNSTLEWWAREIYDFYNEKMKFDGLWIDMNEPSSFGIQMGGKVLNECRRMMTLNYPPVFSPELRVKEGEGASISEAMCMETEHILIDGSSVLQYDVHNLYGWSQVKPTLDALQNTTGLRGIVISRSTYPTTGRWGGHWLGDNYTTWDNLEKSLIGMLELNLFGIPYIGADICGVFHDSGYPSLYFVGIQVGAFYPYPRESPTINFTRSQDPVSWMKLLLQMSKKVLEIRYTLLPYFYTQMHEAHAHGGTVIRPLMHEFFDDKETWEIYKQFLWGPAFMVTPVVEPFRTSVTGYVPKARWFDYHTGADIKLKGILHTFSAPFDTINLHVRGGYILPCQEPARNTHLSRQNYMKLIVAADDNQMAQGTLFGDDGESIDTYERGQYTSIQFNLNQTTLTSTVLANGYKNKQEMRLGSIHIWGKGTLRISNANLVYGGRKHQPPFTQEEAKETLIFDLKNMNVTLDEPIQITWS
Chain of Alpha-galactosidase (Q42656 whole entry): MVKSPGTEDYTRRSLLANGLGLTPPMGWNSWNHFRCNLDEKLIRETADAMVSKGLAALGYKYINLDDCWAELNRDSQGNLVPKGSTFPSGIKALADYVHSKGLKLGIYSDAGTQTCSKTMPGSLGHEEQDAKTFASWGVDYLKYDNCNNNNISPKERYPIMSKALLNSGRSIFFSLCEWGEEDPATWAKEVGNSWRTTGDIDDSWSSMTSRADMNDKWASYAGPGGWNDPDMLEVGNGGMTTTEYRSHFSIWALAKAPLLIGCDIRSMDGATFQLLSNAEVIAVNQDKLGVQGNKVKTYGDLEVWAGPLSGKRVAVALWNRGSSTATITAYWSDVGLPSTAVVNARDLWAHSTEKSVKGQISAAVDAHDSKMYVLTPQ

| IC50 [3] | inhibition [4] [%] | IC50 [6] | IC50 [7] | IC50 [9] | inhibition [10] [%] | IC50 [11] | inhibition [12] [%] | inhibition [14] [%] | inhibition [15] [%] | IC50 [16] | inhibition [17] [%] | inhibition [19] [%] | IC50 [20] | inhibition [21] [%] | inhibition [23] [%] | IC50 [24] | pIC50 [25] | IC50 [26] | pIC50 [27] | Compound | further results |
| --- | --- | --- | --- | --- | --- | --- | --- | --- | --- | --- | --- | --- | --- | --- | --- | --- | --- | --- | --- | --- | --- |
| Not Active | 2.5 | Not Active | Not Active | Not Active | 3.4 | Not Active | 2.8 | 1.5 | 13.2 | Not Active | 17.2 | 6.7 | Not Active | 0.9 | 8 | Not Active | 3.59 | Not Active | 3.57 | CCCCCC[C@@]1(CO)NC[C@H](O)[C@@H](O)[C@@H]1O.Cl | IC50 [1]: Not Active; IC50 [2]: Not Active; inhibition [5]: 15.7%; inhibition [8]: 11.6%; IC50 [13]: Not Active; IC50 [18]: Not Active; inhibition [22]: 24.8% |
| Not Active | 9.5 | Not Active | Not Active | Not Active | 7.5 | Not Active | 2 | 0 | 2.7 | Not Active | 17.7 | 9.6 | Not Active | 13.8 | 9.3 | Not Active | 4.42 | Not Active | 4.66 | C[C@@]1(CO)NC[C@H](O)[C@@H](O)[C@@H]1O.Cl | IC50 [1]: Not Active; IC50 [2]: Not Active; inhibition [5]: 3.6%; pIC50 [13]: 4.60; IC50 [18]: Not Active; inhibition [22]: 14.1% |
| Not Active | 6.9 | Not Active | Not Active | Not Active | 4.2 | Not Active | 0 | 0 | 11.9 | Not Active | 2.5 | 2.4 | Not Active | 0 | 8 | Not Active | 5.00 | Not Active | 4.72 | CCCCCCC[C@@]1(CO)NC[C@H](O)[C@@H](O)[C@@H]1O.Cl | IC50 [1]: Not Active; IC50 [2]: Not Active; inhibition [5]: 16.5%; pIC50 [13]: 4.05; IC50 [18]: Not Active; inhibition [22]: 28.4% |
| Not Active | 6.2 | Not Active | Not Active | Not Active | 1.5 | Not Active | 1.1 | 0 | 0 | Not Active | 0.4 | 2.4 | Not Active | 2.1 | 3.5 | Not Active | 4.85 | Not Active | 5.18 | CC[C@@]1(CO)NC[C@H](O)[C@@H](O)[C@@H]1O.Cl | IC50 [1]: Not Active; pIC50 [2]: 4.30; inhibition [5]: 9.2%; pIC50 [13]: 5.06; IC50 [18]: Not Active; inhibition [22]: 18.4% |
| Not Active | 5.7 | Not Active | Not Active | Not Active | 4.3 | Not Active | 1.5 | 3.6 | 1.9 | Not Active | 8.6 | 7.9 | Not Active | 9.9 | 11 | Not Active | 7.06 | Not Active | 7.02 | CCC[C@]1(CO)NC[C@H](O)[C@@H](O)[C@@H]1O.Cl | IC50 [1]: Not Active; pIC50 [2]: 5.77; inhibition [5]: 10.3%; pIC50 [13]: 6.70; IC50 [18]: Not Active; inhibition [22]: 15.7% |
| Not Active | 8.8 | Not Active | Not Active | Not Active | 3 | Not Active | 0 | 0 | 10.5 | Not Active | 3.2 | 4.7 | Not Active | 0 | 2.1 | Not Active | 3.80 | Not Active | 3.58 | CCCCCCCCCC[C@@]1(CO)NC[C@H](O)[C@@H](O)[C@@H]1O.Cl | pIC50 ([1]; read-out: IC50): 4.37; IC50 [2]: Not Active; inhibition [8]: 0%; IC50 [13]: Not Active; pIC50 ([18]; read-out: IC50): 4.08 |
